# Measured values: US4971965A, “Antibiotics TAN-1057” (Takeda Chemical Industries, Ltd., priority 1988, dated 1990)
# Key:
# [1] = test system: Treponema hyodicenterie 78/A; experiment: MIC against Spirochaeta (Table 3); details: 48 h
# [2] = test system: Staphylococcus aureus N267; experiment: Antibacterial activity against clinically isolated S. aureus (agar dilution MIC, Table 2); assay type: cell-based; details: Staphylococcus aureus; strain N267; agar dilution; Mueller Hinton medium; 10^6 CFU/ml; read-out: MIC
# Method: (§1) DMPPC: Methicillin, KM: Kanamycin, GM: Gentamycin, EM: Erythromycin (Note
# (§2) Determined by the agar dilution method. Medium: Mueller Hinton medium
# (§3) (Difco, USA) Inoculum Size: 10^6 CFU/ml, 37° C.
# [3] = test system: Staphylococcus aureus N51; experiment: as above; assay type: cell-based; details: Staphylococcus aureus; strain N51; agar dilution; Mueller Hinton medium; 10^6 CFU/ml; read-out: MIC
# Method: as §1, §2, §3
# [4] = test system: Staphylococcus aureus N176; experiment: as above; assay type: cell-based; details: Staphylococcus aureus; strain N176; agar dilution; Mueller Hinton medium; 10^6 CFU/ml; read-out: MIC
# Method: as §1, §2, §3
# Staphylococcus aureus C7 = experiment: as above; assay type: cell-based; details: Staphylococcus aureus; strain C7; agar dilution; Mueller Hinton medium; 10^6 CFU/ml; read-out: MIC
# Method: as §1, §2, §3
# [5] = test system: Staphylococcus aureus N235; experiment: as above; assay type: cell-based; details: Staphylococcus aureus; strain N235; agar dilution; Mueller Hinton medium; 10^6 CFU/ml; read-out: MIC
# Method: as §1, §2, §3
# [6] = test system: Staphylococcus aureus N326; experiment: as above; assay type: cell-based; details: Staphylococcus aureus; strain N326; agar dilution; Mueller Hinton medium; 10^6 CFU/ml; read-out: MIC
# Method: as §1, §2, §3
# [7] = test system: Staphylococcus aureus N237; experiment: as above; assay type: cell-based; details: Staphylococcus aureus; strain N237; agar dilution; Mueller Hinton medium; 10^6 CFU/ml; read-out: MIC
# Method: as §1, §2, §3
# [8] = test system: Staphylococcus aureus N247-16; experiment: as above; assay type: cell-based; details: Staphylococcus aureus, N24716; strain N247-16; agar dilution; Mueller Hinton medium; 10^6 CFU/ml; read-out: MIC
# Method: as §1, §2, §3
# [9] = test system: Staphylococcus aureus N64; experiment: as above; assay type: cell-based; details: Staphylococcus aureus; strain N64; agar dilution; Mueller Hinton medium; 10^6 CFU/ml; read-out: MIC
# Method: as §1, §2, §3
# Staphylococcus aureus C3 = experiment: as above; assay type: cell-based; details: Staphylococcus aureus; strain C3; agar dilution; Mueller Hinton medium; 10^6 CFU/ml; read-out: MIC
# Method: as §1, §2, §3
# [10] = test system: Staphylococcus aureus FDA 209P; experiment: as above; assay type: cell-based; details: Staphylococcus aureus, FDA209P; strain FDA 209P; agar dilution; Mueller Hinton medium; 10^6 CFU/ml; read-out: MIC
# Method: as §1, §2, §3
# [11] = test system: Staphylococcus aureus N62; experiment: as above; assay type: cell-based; details: Staphylococcus aureus; strain N62; agar dilution; Mueller Hinton medium; 10^6 CFU/ml; read-out: MIC
# Method: as §1, §2, §3
# [12] = test system: Staphylococcus aureus N121; experiment: as above; assay type: cell-based; details: Staphylococcus aureus; strain N121; agar dilution; Mueller Hinton medium; 10^6 CFU/ml; read-out: MIC
# Method: as §1, §2, §3
# [13] = test system: Staphylococcus aureus N91; experiment: as above; assay type: cell-based; details: Staphylococcus aureus; strain N91; agar dilution; Mueller Hinton medium; 10^6 CFU/ml; read-out: MIC
# Method: as §1, §2, §3
# [14] = test system: Staphylococcus aureus N83; experiment: as above; assay type: cell-based; details: Staphylococcus aureus; strain N83; agar dilution; Mueller Hinton medium; 10^6 CFU/ml; read-out: MIC
# Method: as §1, §2, §3
# [15] = test system: Staphylococcus aureus N176-6; experiment: as above; assay type: cell-based; details: Staphylococcus aureus, N1766; strain N176-6; agar dilution; Mueller Hinton medium; 10^6 CFU/ml; read-out: MIC
# Method: as §1, §2, §3
# Escherichia coli LD-2 = assay type: cell-based; details: LD2, read-out: Minimum Inhibitory Conc. (MIC)
# Method: (§4) (Note 1) Measurement was conducted by employing a medium consisting of DY
# (§5) medium [Bacto Antibiotic Medium 3 (Difco Laboratories, USA)(17.5 g), Bact
# (§6) yeast extract(Difco Laboratories, USA)(5.0 g) and distilled water(pH
# (§7) unadjusted)(1000 ml)], using approximately 10^6 colony forming unit/m
# (§8) of inoculum, by means of the agar dilution method.
# [16] = test system: Escherichia coli NIHJ JC 2; assay type: cell-based; details: NIHJJC2, agar dilution, DY medium, pH unadjusted, approx. 10^6 CFU/ml, read-out: Minimum Inhibitory Conc. (MIC)
# Method: as §4, §5, §6, §7, §8
# [17] = test system: Salmonella typhimurium IFO 12529; assay type: cell-based; details: Salmonella enterica; agar dilution; DY medium, pH unadjusted; approx. 10^6 CFU/ml; read-out: Minimum Inhibitory Conc. (MIC)
# Method: as §4, §5, §6, §7, §8
# [18] = test system: Klebsiella pnemoniae IFO 3317; assay type: cell-based; details: IFO3317, agar dilution, DY medium, pH unadjusted, approx. 10^6 CFU/ml, read-out: Minimum Inhibitory Conc. (MIC)
# Method: as §4, §5, §6, §7, §8
# [19] = test system: Pseudomonas aeruginosa IFO 3080; assay type: cell-based; details: IFO3080, agar dilution, DY medium, pH unadjusted, approx. 10^6 CFU/ml, read-out: Minimum Inhibitory Conc. (MIC)
# Method: as §4, §5, §6, §7, §8
# [20] = test system: Streptococcus faecalis IFO 3989; assay type: cell-based; details: Enterococcus faecalis, IFO3989, read-out: Minimum Inhibitory Conc. (MIC)
# Method: as §4, §5, §6, §7, §8
# [21] = test system: Bacillus megaterium IFO 12108; assay type: cell-based; details: Priestia megaterium, IFO12108, read-out: Minimum Inhibitory Conc. (MIC)
# Method: as §4, §5, §6, §7, §8
# Aeromonas caviae NCW = assay type: cell-based; details: read-out: Minimum Inhibitory Conc. (MIC)
# Method: as §4, §5, §6, §7, §8
# [22] = test system: Proteus vulgaris IFO 3988; assay type: cell-based; details: IFO3988, agar dilution, DY medium, pH unadjusted, approx. 10^6 CFU/ml, read-out: Minimum Inhibitory Conc. (MIC)
# Method: as §4, §5, §6, §7, §8
# [23] = test system: Staphylococcus epidermidis IFO 3762; assay type: cell-based; details: IFO3762, agar dilution, DY medium, pH unadjusted, approx. 10^6 CFU/ml, read-out: Minimum Inhibitory Conc. (MIC)
# Method: as §4, §5, §6, §7, §8
# [24] = test system: Micrococcus luteus IFO 12708; assay type: cell-based; details: IFO12708, read-out: Minimum Inhibitory Conc. (MIC)
# Method: as §4, §5, §6, §7, §8
smiles,measurement,setting,value
CN(C(=O)C[C@@H](N)CCCNC(=N)N)[C@H]1CNC(NC(N)=O)=NC1=O [TAN-1057A],MIC,[1],100 µg/mL
same,MIC,[2],≤ 0.2 µg/mL
same,MIC,[3],0.78 µg/mL
same,MIC,[4],1.56 µg/mL
same,MIC,Staphylococcus aureus C7,0.78 µg/mL
same,MIC,[5],1.56 µg/mL
same,MIC,[6],0.78 µg/mL
same,MIC,[7],0.78 µg/mL
same,MIC,[8],0.78 µg/mL
same,MIC,[9],0.78 µg/mL
same,MIC,Staphylococcus aureus C3,0.78 µg/mL
same,MIC,[10],0.39 µg/mL
same,MIC,[11],0.78 µg/mL
same,MIC,[12],0.78 µg/mL
same,MIC,[13],0.78 µg/mL
same,MIC,[14],0.39 µg/mL
same,MIC,[15],0.78 µg/mL
same,MIC,Escherichia coli LD-2,12.5 µg/mL
same,MIC,[16],> 100 µg/mL
same,MIC,[17],100 µg/mL
same,MIC,[18],> 100 µg/mL
same,MIC,[19],> 100 µg/mL
same,MIC,[20],12.5 µg/mL
same,MIC,[21],12.5 µg/mL
same,MIC,Aeromonas caviae NCW,12.5 µg/mL
same,MIC,[22],> 100 µg/mL
same,MIC,[23],0.78 µg/mL
same,MIC,[24],3.13 µg/mL
